The values that follow come from US20050239774A1 (priority 2002, published 2005).

pKd: −log10 of the molar value.

The target of the test is α7 nAChR subtype (Rattus norvegicus, UniProt Q05941). The class given is binding. The conditions noted are these: read-out: KD of the radioligand (saturation curve, one site model).
α7 nAChR subtype, sequence (Q05941 23-502 limits assumed): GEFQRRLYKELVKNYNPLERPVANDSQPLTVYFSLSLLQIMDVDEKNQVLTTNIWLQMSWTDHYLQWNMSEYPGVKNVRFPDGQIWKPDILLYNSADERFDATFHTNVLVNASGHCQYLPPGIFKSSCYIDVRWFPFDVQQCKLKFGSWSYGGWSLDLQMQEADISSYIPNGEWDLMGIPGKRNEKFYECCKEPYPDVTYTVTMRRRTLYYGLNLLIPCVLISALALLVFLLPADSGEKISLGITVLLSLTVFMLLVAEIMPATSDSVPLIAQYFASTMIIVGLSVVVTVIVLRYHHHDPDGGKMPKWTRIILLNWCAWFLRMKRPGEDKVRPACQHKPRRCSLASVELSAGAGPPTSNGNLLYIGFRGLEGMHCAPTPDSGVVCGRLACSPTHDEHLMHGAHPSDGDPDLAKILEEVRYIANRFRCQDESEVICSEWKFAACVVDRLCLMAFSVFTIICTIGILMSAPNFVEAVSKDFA

As for ^125I-α-Bungarotoxin [^125I-α-BTX], the pKd is 8.78.
